One substance from patent US9200017B2, “Multimodal imaging of fibrin” (The General Hospital Corporation, priority 2009, dated 2015) can be followed below.

In this assay the target is T1, fibrin (clotted fibrinogen from human plasma) (Homo sapiens, UniProt P02671+P02675+P02679).
T1 construct: thrombin cleaves fibrinopeptides on fibrinogen resulting in an end-to-end polymerization to give the polymer fibrin; Fibrinogen from human plasma (Calbiochem); purchased Calbiochem; host or cells: human plasma
T1 sequence (P02671 36-629 isoform P02671-2 limits assumed): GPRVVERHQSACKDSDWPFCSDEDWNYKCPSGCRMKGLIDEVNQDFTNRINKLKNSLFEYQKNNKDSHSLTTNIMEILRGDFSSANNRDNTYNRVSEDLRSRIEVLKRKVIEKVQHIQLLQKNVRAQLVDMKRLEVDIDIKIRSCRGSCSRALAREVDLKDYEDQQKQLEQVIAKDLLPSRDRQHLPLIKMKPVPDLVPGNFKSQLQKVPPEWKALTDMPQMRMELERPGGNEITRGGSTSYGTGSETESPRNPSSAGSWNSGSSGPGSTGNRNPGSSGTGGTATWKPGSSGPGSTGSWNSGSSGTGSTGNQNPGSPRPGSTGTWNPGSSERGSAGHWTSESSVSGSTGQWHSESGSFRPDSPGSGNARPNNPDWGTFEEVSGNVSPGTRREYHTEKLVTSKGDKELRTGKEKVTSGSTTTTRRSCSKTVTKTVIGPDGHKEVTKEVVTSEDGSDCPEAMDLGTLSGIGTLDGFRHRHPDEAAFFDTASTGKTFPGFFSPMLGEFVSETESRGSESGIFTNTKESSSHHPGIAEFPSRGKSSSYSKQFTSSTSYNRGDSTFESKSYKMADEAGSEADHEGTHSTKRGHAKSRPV
T1 sequence (P02675 45-491 limits assumed): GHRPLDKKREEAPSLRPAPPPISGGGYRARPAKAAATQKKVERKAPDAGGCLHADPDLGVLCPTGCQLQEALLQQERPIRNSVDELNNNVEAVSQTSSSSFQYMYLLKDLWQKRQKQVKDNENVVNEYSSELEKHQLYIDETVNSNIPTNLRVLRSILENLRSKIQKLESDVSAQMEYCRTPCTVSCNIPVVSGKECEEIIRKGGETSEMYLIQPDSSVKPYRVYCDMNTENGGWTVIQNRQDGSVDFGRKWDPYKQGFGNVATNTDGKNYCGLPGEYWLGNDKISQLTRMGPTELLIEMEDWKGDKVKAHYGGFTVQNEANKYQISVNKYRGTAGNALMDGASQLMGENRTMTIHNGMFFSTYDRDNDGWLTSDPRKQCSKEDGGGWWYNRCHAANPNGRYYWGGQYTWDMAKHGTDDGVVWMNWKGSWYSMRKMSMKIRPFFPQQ
T1 sequence (P02679 27-437 isoform P02679-2 limits assumed): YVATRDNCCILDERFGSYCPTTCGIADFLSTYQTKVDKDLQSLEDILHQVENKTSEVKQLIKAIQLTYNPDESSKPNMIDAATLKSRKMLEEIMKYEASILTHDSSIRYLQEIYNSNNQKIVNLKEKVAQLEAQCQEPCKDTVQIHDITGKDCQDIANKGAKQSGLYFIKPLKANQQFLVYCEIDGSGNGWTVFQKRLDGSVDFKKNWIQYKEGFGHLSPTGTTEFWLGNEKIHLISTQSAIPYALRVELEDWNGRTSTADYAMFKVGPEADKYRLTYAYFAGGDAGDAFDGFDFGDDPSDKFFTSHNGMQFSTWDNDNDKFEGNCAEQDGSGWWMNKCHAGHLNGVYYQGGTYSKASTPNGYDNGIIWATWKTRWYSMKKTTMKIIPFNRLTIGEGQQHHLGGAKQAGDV
The assay is described as follows: Fibrin binding of Cu-64 labeled probes, dried fibrin plate, percentage bound. The settings on record: dried fibrin wells, 37° C., unbound probe by well counting. As for the experimental part: Fibrinogen from human plasma (Calbiochem) was dialyzed against 50 mM Tris, pH 7.4, 150 mM sodium chloride, 5 mM sodium citrate (TBS·citrate). The fibrinogen concentration was adjusted to 5 mg/mL and CaCl2 was added (7 mM). The fibrinogen solution (50 μL) was dispensed into the wells of a 96-well polystyrene microplate (Immulon-II). A solution (50 μL) of human thrombin (2 U/mL) in TBS was added to each well to clot the fibrinogen. The plates were incubated at 37° C. and evaporated to dryness overnight. The plates were sealed with tape and stored at −20° C. until use. The wells with dried fibrin were incubated at 37° C. with known concentrations of the probes. The concentration of the unbound probe was determined by well counting. The concentration of the bound probe=[total]−[unbound]. The percentage bound probe was given by [(bound probe)/total probe)]×100.

Consider Gd3-EP-2104R-Cu [Compound 21], for which the “% bound (percentage bound probe)” value amounted to 98.7%.
